# Measured values taken from patent publication US9067966B2, “Lupeol-type triterpene derivatives as antivirals” (priority 2009, dated 2015).
# Columns and labels:
# Type in all cases: cell-based
# [1] = tested on: HIV-1 strain NL4-3; assay: Anti-HIV-1 luciferase indicator assay in MT2 cells, NL4-3; details: viral strain NL4-3
# Description: (§1) Compound was dissolved in DMSO to make 30 mM stock. Then the 30 mM stock is further diluted to 4 mM using DMSO. The 4 mM stock was used as the top concentration to carry out an 11-point, 3-fold dilution scheme using DMSO in a 96-well plate to make the compound dose plate. Compounds in the dose plate were transferred to a new 96-well plate (working plate) containing PBS with 0.05% pluronic acid. From this working plate, the compound solution was transferred to the 384-well assay plates.
# (§2) Control compounds used in compound control wells were prepared and added to assay plates individually.
# (§3) MT2 cells were mixed with HIV-1 strain NL4-3 (or IIIB, or CNHN24) and the cell/virus mixture was added to the aforementioned antivirus assay plates. After incubation in a 37° C., 5% CO2 incubator, the supernatant from the assay plate was transferred to a new 384-well plate containing the indicator cells with a fire fly luciferase gene under HIV-1 LTR control. The expression level of luciferase was related to HIV-1 infectivity and was measured by Bright-Glo kit (Promega).
# (§4) Therapeutic index (TI) was determined by taking ratio of CC50/IC50
# [2] = tested on: HIV-1 strain IIIB; assay: Anti-HIV-1 luciferase indicator assay in MT2 cells, IIIB; details: viral strain II B
# Description: as §1, §2, §3, §4
# [3] = tested on: HIV-1 strain CNHN24; assay: Anti-HIV-1 luciferase indicator assay in MT2 cells, CNHN24; details: viral strain CNHN24
# Description: as §1, §2, §3, §4
# [4] = in vitro; details: human, CC50
# Description: as §1
# For cytotoxicity assay the same amount of MT2 cells as in antivirus assay but without HIV-1 virus were added to the cytotoxicity plates. The cytotoxicity was measured by Cell Titer-Glo cell viability assay (Promega).
# [5] = tested on: HIV-1 strain NL4-3; assay: Anti-HIV-1 luciferase indicator assay in PBMC cells, NL4-3; details: Human immunodeficiency virus 1, NL43, viral strain NL4-3
# Description: as §1, with “stock was” for “stock is”, “working plate” for “working plate,”
# (§5) Control compounds for cpd control wells were prepared and added to assay plates individually.
# (§6) PBMC cells were isolated from human whole blood using Histopaque-1077 (Sigma, #10771) and frozen down and kept in liquid nitrogen tank. Two days before the assay PBMC was recovered and cultured in medium containing PHA-P (Sigma, #L1668). On the day of assay PBMC cells were pelleted down and resuspended in medium containing IL-2 (Sigma, #I7908), then the cells were mixed with HIV-1 strain NL4-3, MOI=0.01 (or IIIB, or CNHN24) and the cell/virus mixture was added to the aforementioned antivirus assay plates. […] The expression level of luciferase was related to HIV-1 infectivity and was measured by Bright-Glo kit (Promega).
# [6] = tested on: HIV-1 strain IIIB; assay: Anti-HIV-1 luciferase indicator assay in PBMC cells, IIIB; details: Human immunodeficiency virus 1, IIIB, viral strain II B
# Description: as §1, with “stock was” for “stock is”, “working plate” for “working plate,”
# as §5, §6
# [7] = tested on: HIV-1 strain CNHN24; assay: Anti-HIV-1 luciferase indicator assay in PBMC cells, CNHN24; details: Human immunodeficiency virus 1, viral strain CNHN24
# Description: as §1, with “stock was” for “stock is”, “working plate” for “working plate,”
# as §5, §6
# [8] = in vitro; details: human
# Description: as §1, with “stock was” for “stock is”, “working plate” for “working plate,”
# For the cytotoxicity assay, the same amount of PBMC cells as in the antivirus assay but without the HIV-1 virus, was added to the cytotoxicity plates. The cytotoxicity was measured by a CellTiter-Glo cell viability assay (Promega).
smiles,measurement,setting,value
C=C(C)[C@@H]1CC[C@]2(C(=O)N[C@@H]3C[C@H](C(=O)N4CCCC4)C3(C)C)CC[C@]3(C)[C@H](CC[C@@H]4[C@@]5(C)CC[C@H](OC(=O)CC(C)(C)C(=O)O)C(C)(C)[C@@H]5CC[C@]43C)[C@@H]12 [Example 45],IC50,"[1]; Human immunodeficiency virus 1, NL43, MT2, MT2 cells, read-out: IC50",17 nM
same,TI / Safety Index (CC50/IC50),[1]; MT2 cells,1177
same,IC50,"[2]; Human immunodeficiency virus 1, IIIB, MT2, MT2 cells, read-out: IC50",25 nM
same,TI / Safety Index (CC50/IC50),[2]; MT2 cells,800
same,IC50,"[3]; Human immunodeficiency virus 1, MT2, MT2 cells, read-out: IC50",22 nM
same,TI / Safety Index (CC50/IC50),[3]; MT2 cells,800
same,CC50,[4],20000 nM
same,IC50,[5],17 nM
same,IC50,[6],25 nM
same,IC50,[7],22 nM
same,CC50,[8],> 20000 nM
